PMC3743553 (Journal of child neurology, 2012)

Tests used:
[1] = tested on: histones H3 and H4 within intron 1 of FXN; conditions: chromatin immunoprecipitation; cited from earlier work
FXN messenger RNA [2] = conditions: cited from earlier work; for effects on FXN messenger RNA levels: Friedreich ataxia cells
frataxin protein = conditions: Friedreich ataxia lymphoblast cell line; cited from earlier work
class II HDACs = conditions: panel of recombinant human enzymes expressed in baculovirus; cited from earlier work
[3] = tested on: histone deacetylase enzyme 2; conditions: relative to histone deacetylase enzymes 1 and 3; cited from earlier work
[4] = tested on: global acetylation of histone H3; conditions: Friedreich ataxia lymphoblast cell line; cited from earlier work
HDAC3 = conditions: recombinant enzymes; cited from earlier work
[5] = tested on: class I histone deacetylase enzymes; conditions: 106: histone deacetylase enzymes 1 and 3; cited from earlier work
FXN messenger RNA [6] = assay: FXN messenger RNA by qRT-PCR in peripheral blood mononuclear cells; format: cell-based, human; conditions: 10 μM, 48 hours
[7] = tested on: histone deacetylase enzyme 8; conditions: relative to histone deacetylase enzymes 1 and 3; cited from earlier work
FXN messenger RNA [8] = assay: FXN messenger RNA by qRT-PCR in Friedreich ataxia lymphoid cells; format: cell-based, human; conditions: 10 μM compound, qRT-PCR of FXN messenger RNA
[9] = tested on: KIKI (FXN 230GAA/230GAA) mouse; conditions: KIKI mice; cited from earlier work
YG8R mouse = conditions: cited from earlier work
[10] = pH = 2 and 50 °C; cited from earlier work

In the case of `Nc1ccccc1NC(=O)CCCCCC(=O)Nc1ccccc1` [4b], the “histone acetylation on FXN (H3-K14, H4-K5, H4-K12 within intron 1)” value (from here on “histone acetylation on FXN”) [1] is listed as “increases acetylation”.

For `Nc1ccccc1NC(=O)CCCCCCC(=O)Nc1ccccc1` [BML-210], the “repression of FXN in lymphoid cell lines derived from patients with Friedreich ataxia” value (FXN messenger RNA [2]) is given as “relieve repression”.

For `Cc1ccc(NC(=O)CCCCCC(=O)Nc2ccccc2N)cc1` [compound 106], the “induction of frataxin protein” value (frataxin protein) is listed as “potent inducer”, the “activity against class II histone deacetylases” value (class II HDACs) is listed as “little or no activity” and the “activity against histone deacetylase enzyme 2” value [3] is listed as “much lower activity”. For the same molecule, the “acetylated histones after washing cells free of the compounds” value [4] was “persists for several hours”, the “preference for histone deacetylase enzyme 3 over histone deacetylase enzyme 1” value (HDAC3) was about 10 fold and the mechanism of inhibition [5] was “slow-on/slow-off”. For the same molecule, the “FXN messenger RNA, cells from patients with Friedreich ataxia” value (FXN messenger RNA [6]; peripheral blood mononuclear cells from affected individuals) was “significant increases”, the “FXN messenger RNA, wild-type alleles in cells from unaffected individuals” value (FXN messenger RNA [6]; peripheral blood mononuclear cells from unaffected individuals) was “only a very small effect” and the “activity against histone deacetylase enzyme 8” value [7] was “much lower activity”. The FXN transcription (FXN messenger RNA [8]) was “Highly active”, the “frataxin levels in the nervous system and heart” value [9] was “restored” and the “histone H3 and H4 acetylation in chromatin near the GAA•TTC repeat” value [9] was “increased”. The “global histone H3 and H4 acetylation of brain tissue” value (YG8R mouse) was “increased”, the “toxicity during 5 months of treatment” value (YG8R mouse) was “no overt toxicity” and the motor coordination (YG8R mouse; long-term treatment) was “improvement”.

In the case of `Cc1ccc(C(=O)NCCCCCC(=O)Nc2ccccc2N)cc1` [compound 109], the “t1/2 in acidic conditions” value [10] is listed as 6 h and the “toxicity during 5 months of treatment” value (YG8R mouse) is listed as “no overt toxicity”.

In the case of `O=C(CCCCCCC(=O)Nc1ccccc1)NO` [suberoylanilide hydroxamic acid], the “effects on FXN messenger RNA levels” value (FXN messenger RNA [2]) is given as “no effects”, the “activator of FXN transcription in Friedreich ataxia cells” value (FXN messenger RNA [2]; at subcytotoxic concentrations) is given as “inactive” and the “induction of frataxin protein” value (frataxin protein) is given as “no such activity”. The “acetylated histones after washing cells free of the compounds” value [4] was “rapidly lost” and the “histone acetylation on FXN” value [1] was “no effect”.

In the case of `CC(/C=C/C(=O)NO)=C\[C@@H](C)C(=O)c1ccc(N(C)C)cc1` [trichostatin A], the “effects on FXN messenger RNA levels” value (FXN messenger RNA [2]) is given as “no effects”, the mechanism of inhibition [5] is given as “rapid-on/rapid-off, classical competitive inhibitors” and the “histone acetylation on FXN” value [1] is given as “no effect”.
